Assay [1] addresses T1, Catechol O-methyltransferase (Rattus norvegicus) (UniProt P22734).
T1 sequence (whole entry): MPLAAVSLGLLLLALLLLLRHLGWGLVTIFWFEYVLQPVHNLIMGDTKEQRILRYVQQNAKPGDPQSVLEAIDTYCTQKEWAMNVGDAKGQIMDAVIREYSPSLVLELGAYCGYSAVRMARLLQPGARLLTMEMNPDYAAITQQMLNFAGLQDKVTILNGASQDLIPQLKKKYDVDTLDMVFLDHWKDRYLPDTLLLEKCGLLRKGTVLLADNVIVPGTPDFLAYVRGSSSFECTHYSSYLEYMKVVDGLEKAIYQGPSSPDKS
Briefly: Percent inhibition of Catechol O-methyltransferase activity in rat brain at dose of 30 mg/kg determined at 6 h after its administration. The assay is classed as organism-based. Further details: dose 30 mg/kg.

In assay [2] the target is T1, Catechol O-methyltransferase (Rattus norvegicus). Briefly: Percent inhibition of Catechol O-methyltransferase activity in rat liver at dose of 30 mg/kg determined at 6 hr after its administration. The assay is classed as organism-based. The arrangement: dose 30 mg/kg.

In the case of `O=C(Cc1cccc2ccccc12)c1cc(O)c(O)c([N+](=O)[O-])c1`, the results for the inhibition in assay [1] and in assay [2] were 10% and 70%, respectively.
Take `CC(=O)Oc1cc(C(=O)Cc2ccccc2[N+](=O)[O-])cc([N+](=O)[O-])c1OC(C)=O`: the inhibition amounted to 20% in assay [1] and 28% in assay [2].
Take `CC(=O)Oc1cc(C(=O)C(C)c2ccccc2)cc([N+](=O)[O-])c1OC(C)=O` (stereo not given): the figures for the inhibition in assay [1] and in assay [2] were 44% and 42%, respectively.
For the molecule `O=C(CC1CCCCC1)c1cc(O)c(O)c([N+](=O)[O-])c1`, the values for the inhibition in assay [1] and in assay [2] were 39% and 72%, respectively.
For `O=[N+]([O-])c1cc(CCc2ccccc2)cc(O)c1O`, in that order: 10% and 0%.
As to `O=C(Cc1ccc(Cl)cc1)c1cc(O)c(O)c([N+](=O)[O-])c1`, the inhibition in assay [1] came to 12%; in assay [2], 69%.
As to `O=C(Cc1ccc2ccccc2c1)c1cc(O)c(O)c([N+](=O)[O-])c1`, the inhibition in assay [1] was 17%; in assay [2], 83%.
As to `CC(=O)Oc1cc(C(=O)C(C)(C)c2ccccc2)cc([N+](=O)[O-])c1OC(C)=O`, the inhibition in assay [1] stood at 23%; in assay [2], 19%.
In the case of `O=[N+]([O-])c1cc(/C(Cc2ccccc2)=N\O)cc(O)c1O`, the inhibition in assay [1] turned out to be 13%; in assay [2], 48%.
For `O=C(Cc1ccccc1C(=O)O)c1cc(O)c(O)c([N+](=O)[O-])c1`, in that order: 34% and 39%.
As for `O=c1oc(-c2cc(O)c(O)c([N+](=O)[O-])c2)cc2ccccc12`, the inhibition in assay [1] amounted to 29%; in assay [2], 15%.
In the case of `CC(=O)Oc1cc(C(=O)C(Cc2ccccc2)c2ccccc2)cc([N+](=O)[O-])c1OC(C)=O` (stereo not given), the inhibition in assay [1] came to 44%; in assay [2], 63%.
As to `CC(=O)Oc1cc(C(=O)Cc2ccc([N+](=O)[O-])cc2)cc([N+](=O)[O-])c1OC(C)=O`, the inhibition in assay [1] came out at 0%; in assay [2], 49%.
Taken in the same sequence, the figures for `Cc1ccccc1CC(=O)c1cc(O)c(O)c([N+](=O)[O-])c1` were 33% and 74%.
`COc1ccc(CC(=O)c2cc(OC(C)=O)c(OC(C)=O)c([N+](=O)[O-])c2)cc1`: the inhibition in assay [1] is 25%; in assay [2] it was 72%.
Take `O=C(c1cc(O)c(O)c([N+](=O)[O-])c1)C(c1ccccc1)c1ccccc1`: the inhibition turned out to be 7% in assay [1] and 13% in assay [2].
Taken in the same sequence, the figures for `CC(=O)Oc1cc(C(=O)C2(c3ccccc3)CCCCC2)cc([N+](=O)[O-])c1OC(C)=O` were 19% and 14%.
In the case of `CC(=O)Oc1cc(C(=O)C(Br)c2ccccc2)cc([N+](=O)[O-])c1OC(C)=O` (stereo not given), the inhibition in assay [1] stood at 20%; in assay [2], 48%.
For `O=C(Cc1ccc(-c2ccccc2)cc1)c1cc(O)c(O)c([N+](=O)[O-])c1`, in that order: 28% and 78%.
Consider `Cc1ccc(CC(=O)c2cc(O)c(O)c([N+](=O)[O-])c2)cc1`, for which the inhibition in assay [1] was determined as 23%; in assay [2], 83%.

As usually defined, the inhibition is the percentage by which the read-out fell short of the control.

Source of the values: ChEMBL document CHEMBL1135708, “Synthesis of 1-(3,4-dihydroxy-5-nitrophenyl)-2-phenyl-ethanone and derivatives as potent and long-acting peripheral inhibitors of catechol-O-methyltransferase” (J Med Chem, 2002).
